In assay [1] the test system is CAG-C38 iCasp9 iPSC clone with targeted insertion of sr39TK into H11 locus. Nature of the assay: Dual suicide gene safe guard system killing in vitro (iCasp9 at AAVS1, sr39TK at H11). The assay is classed as cell-based, human. From the text:
In addition to CAG-iCasp9 integrated into AAVS1 locus, CAG-sr39TK was integrated into H11 safe harbor in CAG-C38 clonal iPSC using targeted insertion method described herein.

The subject of assay [2] is puro-selected 293T cells with CMV-driven iCasp9 (AAVS1-G1.0) at AAVS1 locus. Nature of the assay: In vitro inducible killing by AP1903, 7AAD staining and flow cytometry, 293T cells. It counts as cell-based. The note with it: AP1903 10 nM or 120 nM, 24 hrs, DMSO control, n=2. From the text:
(§1) In vitro inducible killing of iCasp9-integrated iPSCs: The chemical inducer of dimerization (CID; AP1903) was purchased from Medchemexpress (Monmouth Junction, NJ). Twenty-four hours after CID exposure, the cells were harvested and stained with 7-amino actinomycin D (7-AAD) according to the manufacturer's instruction (BD Biosciences). The percentage of 7-AAD positive cells were quantified as dead cells by flow cytometry (Guava, EMD Millipore, Billerica, MA) and analyzed with flowjo software.
A donor construct encompassing CMV-driven iCasp9 (AAVS1-G1.0) was designed to target the AAVS1 locus (FIG. 1A) and to integrate the Casp9 suicide gene to 293T cells. The donor construct also comprise GFP and puromycin genes, the expression of which are driven by AAVS1 endogenous promoter once the targeted insertion takes place (FIG. 1A). 293T cells were transfected with ZFNs specific to AAVS1 locus and the donor construct AAVS1-G1.0. Three days after transfection, the puromycin selection was started and continued for 12 days. The puro-selected population was analyzed by flow cytometry for GFP expression, and a range of GFP expression levels were observed. It was observed that about 82% of the puro-selected cell population expressed GFP (FIG. 1B). […] The treated cells were then harvested and stained with 7AAD, which selectively stains membrane-compromised dying cells, and analyzed by flow cytometry. […]

Another assay relates to iCasp9-integrated iPSCs. Nature of the assay: In vitro inducible killing of iCasp9-integrated iPSCs by AP1903, 7AAD/GFP flow cytometry. The assay is classed as cell-based, human. The note with it: for cell death mediated by AP1903 (7AAD negative cells percentage): 24 hrs.
Description: as §1
Similar to 293T cells, hiPSCs were transfected with ZFNs specific to AAVS1 locus and a donor construct encompassing CMV-driven iCasp9 (AAVS1-G1.0). The puromycin selection was started 3 days after transfection and continued for 16 days. The puro-resistant cells were analyzed by flow cytometry for GFP expression. Three populations based on the GFP intensity, GFP (neg), GFP (low) and GFP (hi) were sorted by flow cytometry (FIG. 1E). […] The treated cells were harvested and stained with 7AAD and analyzed by flow cytometry. […] However, in contrast to 293T cells with targeted Casp9 insertion at AAVS1 locus, cell death mediated by the AP1903 was not detected in all treatments in iPSCs with targeted Casp9 insertion at AAVS1 locus (FIG. 1F). […]
Because in the previous study puromycin selection under the AAVS1 promoter was robustly expressed to maintain viability and growth during selection, next a donor construct encompassing iCasp9 was designed to target the AAVS1 locus with endogenous AAVS1 promoter driving iCasp9 gene expression upon insertion (and GFP, and puromycin marker genes) (FIG. 2A). hiPSCs were transfected with ZFNs specific to AAVS1 locus and the donor construct encompassing iCasp9 under the control of AAVS1 endogenous promoter. […] The treated cells were harvested and stained with 7AAD and analyzed by flow cytometry. […] However, cell death mediated by the AP1903 was not detected in all treatments in iPSCs with targeted insertion of Casp9 at AAVS1 locus, and controlled Casp9 expression by endogenous AAVS1 promoter (FIG. 2C). […]
In general terms: In flow cytometry, cells or beads pass a laser one at a time.

As for `CC[C@H](C(=O)N1CCCC[C@H]1C(=O)O[C@H](CCc1ccc(OC)c(OC)c1)c1cccc(OCC(=O)NCCNC(=O)COc2cccc([C@@H](CCc3ccc(OC)c(OC)c3)OC(=O)[C@@H]3CCCCN3C(=O)[C@@H](CC)c3cc(OC)c(OC)c(OC)c3)c2)c1)c1cc(OC)c(OC)c(OC)c1` [AP1903], the inducible killing entry in assay [1] (10 nM AP1903 alone for two days) is recorded as “inducible killing of most cells but rare cells remained”. In addition, the “cell death (7AAD negative cells percentage)” value in assay [2] is listed as “Significant cell death was detected”. The “cell death mediated by AP1903 (7AAD negative cells percentage)” value in the assay with iCasp9-integrated iPSCs (hiPSCs with CMV-driven iCasp9, GFP (neg), GFP (low), GFP (hi) populations, 10 nM or 100 nM) is on record as “not detected”; with iCasp9-integrated iPSCs (iPSCs with iCasp9 under endogenous AAVS1 promoter), “not detected”. Besides, in the assay with iCasp9-integrated iPSCs (hiPSCs with EF1α-driven iCasp9 at AAVS1, puromycin selected 20 days), the “AP1903 cell death induction of GFP positive cells” value is “although few, were responsive”.
On to `Nc1nc(O)c2ncn(COC(CO)CO)c2n1` [GCV, Ganciclovir], for which, in assay [1] (25 μg/mL GCV alone for nine days), the inducible killing result is given as “expanded GCV-refractory cells”.

The record behind these values is patent publication US12642852B1, “Genomic engineering of pluripotent cells” (Fate Therapeutics, Inc., priority 2015, dated 2026).
